Legend:
[1] = system: A549 human lung carcinoma; test: Antitumor effect of Bestatin and gefitinib in A549 cancer-bearing mice (Example 15); type: in vivo, BALB/c nu/nu mice; conditions: po, qd, 6 days/week x 3 weeks
Experimental: • [1] Production of Cancer-Bearing Mouse
A549 human lung carcinoma suspension (5×10^6 cells/100 μL PBS) was subcutaneously inoculated to BALB/c nu/nu mice (female). After cells were transplanted, mice with a tumor volume reaching about 117 mm^3 (on day 15 after the cell transplantation) were used for the following in vivo experiments, • [2] Evaluation of Antitumor Effects Attained by Combination of Bestatin and Gefitinib
Bestatin and gefitinib were respectively administered by the following doses, administration route and schedule to the above A549 cancer-bearing mice.
The antitumor effect was examined based on changes in tumor volume and changes in body weight.
The tumor volume was calculated by the following formula.
Tumor volume (mm^3)=(long side of tumor)×(short side of tumor)^2×0.5
Tumor growth inhibition (TGI) was also calculated from the tumor volume by the following formula.

[2] = system: post-surgery multiple lung metastases of thyroid gland cancer; test: Case of a patient with post-surgery multiple lung metastases of thyroid gland cancer (Example 2); type: in vivo, human
Experimental: Multiple lung metastases were confirmed in a thyroid gland cancer patient and the platelet count and the neutrophil count in peripheral blood both increased. In December 2013 (Dec-13), the […] to neutrophil count ratio (NLR) in peripheral blood was more than 5, indicating poor prognosis.
Starting in March 2014 (Mar-14), Bestatin (10 mg/day) was administered alone every day.

[3] = system: post-surgery recurrence of non-small cell lung cancer; test: Case of a patient with post-surgery recurrence of non-small cell lung cancer (Example 3); type: in vivo, human; conditions: Bestatin 10 mg/day alone every day from Jan-14
Experimental: The non-small cell lung cancer patient received lung right upper lobectomy, then immunotherapy, but enlargement of the right cervical lymph node was confirmed (September 2012 (Sep-12)). Subsequently, the elevation of CEA levels in peripheral blood was confirmed.
Starting in January 2014 (Jan-14), Bestatin (10 mg/day) was administered alone every day.

[4] = system: post-surgery liver metastasis of colorectal cancer; test: Case of a terminal colorectal cancer patient with post-surgery liver metastasis (Example 1); type: in vivo, human
Experimental: Post-surgery liver metastasis was confirmed in the terminal colorectal cancer patient.
Starting in March 2014 (Mar-14), Bestatin […]) was administered alone every day.

[5] = Bestatin 10 mg/day alone every day from Mar-14
[6] = Bestatin 10 mg/day alone every day, May-14, two months after start

| Structure (SMILES) | TGI (%) On day 40 ([1]; G2: gefitinib 10 mg/kg alone) [%] | Lymphocyte in peripheral blood ([2]; 2014 Jul. 15 (After administration), Bestatin 10 mg/day alone, before administration 8%) [%] | Neutrophil in peripheral blood ([2]; 2014 Jul. 15 (After administration), Bestatin 10 mg/day alone, before administration 83%) [%] | Leukocyte in peripheral blood ([2]; 2014 Jul. 15 (After administration), Bestatin 10 mg/day alone, before administration (2014 Jan. 10) 9500) | neutrophil count in peripheral blood [2, 5] | platelet count in peripheral blood [2, 5] | CEA level in peripheral blood [3] | TGI (%) On day 40 ([1]; G3: Bestatin 30 mg/kg alone) [%] | platelet count in peripheral blood [4, 5] | tumor marker CA19-9 level in peripheral blood [4, 6] | tumor marker CEA level in peripheral blood [4, 6] | CEA level after Bestatin administration was stopped ([4]; administration stopped Jul-14) | platelet count in peripheral blood after Bestatin administration was stopped ([4]; administration stopped Jul-14) |
| --- | --- | --- | --- | --- | --- | --- | --- | --- | --- | --- | --- | --- | --- |
| COc1cc2ncnc(Nc3ccc(F)c(Cl)c3)c2cc1OCCCN1CCOCC1 [gefitinib] | 31 | – | – | – | – | – | – | – | – | – | – | – | – |
| CC(C)C[C@H](NC(=O)[C@@H](O)[C@H](N)Cc1ccccc1)C(=O)O [Bestatin, (2S)-2-[(2S,3R)-3-amino-2-hydroxy-4-phenylbutanoylamino]-4-methylpentanoic acid] | – | 22 | 55 | 4900 | drops | drops | drop | 39 | started decreasing | started decreasing | started decreasing | quickly elevated again | quickly elevated again |

From patent US20180256668A1, “PHARMACEUTICAL COMPOSITION FOR TREATMENT OF OR REMISSION IN ELDERLY OR TERMINAL CANCER PATIENT” (DELTA-FLY PHARMA, INC., priority 2014, published 2018)
